Laboratory results from paper PMC11870037 (Molecules, 2024).

Legend:
NET = NET (Rattus norvegicus, UniProt Q63380); assay: biochemical; settings: Receptor Affinity Ki ± SEM NET, rat hippocampal membrane, [3H]nisoxetine; means ± SEM of three experiments
[1] = target: T1, Serotonin 5-HT2A receptor (Rattus norvegicus, UniProt P14842); assay: Serotonin 5-HT2A receptor binding ([3H]ketanserin); settings: rat brain cortex
T1 construct: The cerebral cortex of a rat was finely homogenized using an ULTRA TURAX; from tissue; host or cells: rat cerebral cortex membranes

σ2 receptor = target: T2, σ2 receptor (Cavia porcellus, UniProt H0V073); assay: σ2 receptor binding ([3H]-DTG); settings: guinea pig brain membrane
T2 construct: from tissue; host or cells: guinea pig brain membranes

hERG potassium channel = target: T3, hERG potassium channel (Homo sapiens, UniProt Q12809); assay: hERG whole-cell patch clamp in HEK 293 cells; assay type: cell-based
T3 construct: expressed in transfected cells; host or cells: HEK 293

[2] = target: T4, M5 muscarinic cholinergic receptor (Homo sapiens, UniProt P08912); assay: Muscarinic M5 receptor binding (lymphocyte suspension); settings: lymphocyte suspension and sections
T4 construct: blood lymphocytes were used at a concentration of 1 × 10⁶ cells; endogenous in cells; host or cells: peripheral blood lymphocytes
Protocol: (§1) Antagonist potency was determined according to literature, by measuring inhibition of RAMH-induced [35S]GTPγS binding in recombinant hH3R membranes as previously. The […]
(§2) Inverse agonist potency was conducted by measuring inhibition of basal [35S]GTPγS binding in recombinant hH3 Rmembranes. Test compound or vehicle was added to the wells, followed by [35S]GTPγS to a final concentration of 0.2 nM. Nonspecific binding was determined in the presence of 10 μM unlabeled GTPγS. The control agonist signal was determined in wells containing vehicle in place of the test compound, and the basal signal was determined in wells containing vehicle in place of both diluted compound and the RAMH […]
(§3) 3. Selectivity of Compound 11b for Additional Receptors […]
(§4) transporter, 3[H]-WIN35,428, rat striatum; (2) Dopamine D1 receptor, 3[H]-SCH23390, rat striatum; (3) Dopamine D2 receptor, [3H]spiperone, rat striatum; (4) Dopamine D3 receptor, [3H] 7-OH-DPAT, rat olfactory tubercle; (5) Serotonin 5-HT2A receptor, [3H]Ketanserin, rat brain cortex;
(§5) (6) Serotonin 5-HT2C receptor, [3H]mesulergine, rat brain cortex; (7) Adrenergic α2 receptor, [3H]- rauwolscine, rat cerebral cortex; (8) Histamine H2 receptor, [3H]tiotidine, Sf9 cells and […]

mice [3] = assay: Locomotor activity test; assay type: in vivo, mouse; settings: oral 5, 10, 20, 40, and 80 mg/kg, 15 min period
Dopamine D3 receptor = target: T5, Dopamine D3 receptor (Rattus norvegicus, UniProt P19020); assay: Dopamine D3 receptor binding ([3H]7-OH-DPAT); settings: rat olfactory tubercle
T5 construct: A rat olfactory tubercle was homogenized in 20 volumes of ice; from tissue; host or cells: rat olfactory tubercle membranes

adrenergic α1 receptor = assay: Adrenergic α1 receptor binding assay ([3H]prazosin); settings: rat cerebral cortex, means ± SEM of three experiments, read-out: Receptor Affinity Ki ± SEM α1
mice [4] = settings: oral, immobility duration
M2 muscarinic receptor = target: T6, M2 muscarinic receptor (Homo sapiens, UniProt P08172); assay: Muscarinic M2 receptor binding (lymphocyte suspension); settings: lymphocyte suspension and sections
T6 construct: blood lymphocytes were used at a concentration of 1 × 10⁶ cells; endogenous in cells; host or cells: peripheral blood lymphocytes

[5] = target: T7, M4 muscarinic cholinergic receptor (Homo sapiens, UniProt P08173); assay: Muscarinic M4 receptor binding (lymphocyte suspension); settings: lymphocyte suspension and sections
T7 construct: blood lymphocytes were used at a concentration of 1 × 10⁶ cells; endogenous in cells; host or cells: peripheral blood lymphocytes

muscarinic M1 receptor = target: T8, muscarinic M1 receptor (Homo sapiens, UniProt P11229); assay: Muscarinic M1 receptor binding (peripheral blood lymphocytes); settings: lymphocyte suspension and sections
T8 construct: blood lymphocytes were used at a concentration of 1 × 10⁶ cells; endogenous in cells; host or cells: peripheral blood lymphocytes

Dopamine transporter = Dopamine transporter (Rattus norvegicus, UniProt P23977); assay: Dopamine transporter binding ([3H]-WIN35,428); settings: rat striatum; read-out: Ki DAT
Histamine H2 receptor = Histamine H2 receptor (Homo sapiens, UniProt P25021); assay: Histamine H2 receptor binding ([3H]tiotidine, Sf9 membranes); settings: Sf9 cells and membrane
SERT [6] = target: T9, SERT (Rattus norvegicus, UniProt P31652); assay: biochemical; assay type: binding
T9 construct: [3H]-paroxetine, rat cerebral cortex; from tissue; host or cells: rat cerebral cortex (membranes / crude synaptosomes)

σ1 receptor = target: T10, σ1 receptor (Cavia porcellus, UniProt Q60492); assay: σ1 receptor binding ([3H]-(+)-pentazocine); settings: guinea pig brain membrane
T10 construct: from tissue; host or cells: guinea pig brain membranes
Protocol: as §1, §2, §3, §4, §5

Dopamine D1 receptor = Dopamine D1 receptor (Rattus norvegicus, UniProt P18901); assay: Dopamine D1 receptor binding ([3H]-SCH23390); settings: rat striatum
recombinant hH3R = recombinant hH3R (Homo sapiens, UniProt Q9Y5N1); assay: H3 receptor intrinsic activity assay ([35S]GTPγS binding); assay type: biochemical
Adrenergic α2 receptor = Adrenergic α2 receptor binding ([3H]-rauwolscine); settings: rat cerebral cortex
[7] = target: T11, Serotonin 5-HT2C receptor (Rattus norvegicus, UniProt P08909); assay: Serotonin 5-HT2C receptor binding ([3H]mesulergine); settings: rat brain cortex
T11 construct: The cerebral cortex of a rat was processed by homogenization; from tissue; host or cells: rat cerebral cortex membranes

SERT [8] = target: T9, SERT; assay: Monoamine uptake transporter assay, [3H]5-HT uptake by SERT; assay type: biochemical

T9 sequence (P31652 whole entry): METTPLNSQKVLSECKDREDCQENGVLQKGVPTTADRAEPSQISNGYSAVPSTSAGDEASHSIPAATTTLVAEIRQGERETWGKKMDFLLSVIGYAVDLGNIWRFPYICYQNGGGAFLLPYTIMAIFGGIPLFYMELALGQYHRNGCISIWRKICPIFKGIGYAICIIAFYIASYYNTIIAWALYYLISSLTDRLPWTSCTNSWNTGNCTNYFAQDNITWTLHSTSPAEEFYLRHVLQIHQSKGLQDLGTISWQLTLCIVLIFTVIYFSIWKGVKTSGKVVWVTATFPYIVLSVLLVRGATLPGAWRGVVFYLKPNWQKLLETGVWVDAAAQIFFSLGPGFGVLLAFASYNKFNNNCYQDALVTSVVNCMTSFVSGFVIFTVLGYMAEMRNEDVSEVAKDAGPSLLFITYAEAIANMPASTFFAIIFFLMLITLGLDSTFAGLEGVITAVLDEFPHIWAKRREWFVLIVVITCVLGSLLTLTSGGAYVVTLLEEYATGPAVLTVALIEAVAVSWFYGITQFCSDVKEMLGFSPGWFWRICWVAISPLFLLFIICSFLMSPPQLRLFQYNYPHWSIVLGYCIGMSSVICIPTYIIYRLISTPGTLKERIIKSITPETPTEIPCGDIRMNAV
Sequence of recombinant hH3R (Q9Y5N1 whole entry): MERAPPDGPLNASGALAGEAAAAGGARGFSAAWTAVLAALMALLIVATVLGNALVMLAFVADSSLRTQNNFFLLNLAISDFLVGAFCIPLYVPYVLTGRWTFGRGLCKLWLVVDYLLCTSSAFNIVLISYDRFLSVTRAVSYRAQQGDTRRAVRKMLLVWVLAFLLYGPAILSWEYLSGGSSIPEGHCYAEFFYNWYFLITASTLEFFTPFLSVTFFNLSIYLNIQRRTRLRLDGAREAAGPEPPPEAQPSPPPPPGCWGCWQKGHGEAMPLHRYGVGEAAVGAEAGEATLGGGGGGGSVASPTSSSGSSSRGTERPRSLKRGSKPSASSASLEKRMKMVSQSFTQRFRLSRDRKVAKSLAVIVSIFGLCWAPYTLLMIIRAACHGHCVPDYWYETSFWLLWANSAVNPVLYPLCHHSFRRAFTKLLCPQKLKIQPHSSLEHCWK
T2 sequence (H0V073 1-176): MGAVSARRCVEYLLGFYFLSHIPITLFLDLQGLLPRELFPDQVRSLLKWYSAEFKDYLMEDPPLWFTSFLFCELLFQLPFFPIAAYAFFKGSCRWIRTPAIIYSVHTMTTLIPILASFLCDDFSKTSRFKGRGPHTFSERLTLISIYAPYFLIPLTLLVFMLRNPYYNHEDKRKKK
T10 sequence (Q60492 whole entry): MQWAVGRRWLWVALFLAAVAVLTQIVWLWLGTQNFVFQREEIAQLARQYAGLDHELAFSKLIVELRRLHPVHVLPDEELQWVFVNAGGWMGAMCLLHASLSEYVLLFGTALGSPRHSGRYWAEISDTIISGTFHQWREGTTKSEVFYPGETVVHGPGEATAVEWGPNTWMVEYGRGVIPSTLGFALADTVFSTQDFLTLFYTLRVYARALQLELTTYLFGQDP
T3 sequence (Q12809 whole entry): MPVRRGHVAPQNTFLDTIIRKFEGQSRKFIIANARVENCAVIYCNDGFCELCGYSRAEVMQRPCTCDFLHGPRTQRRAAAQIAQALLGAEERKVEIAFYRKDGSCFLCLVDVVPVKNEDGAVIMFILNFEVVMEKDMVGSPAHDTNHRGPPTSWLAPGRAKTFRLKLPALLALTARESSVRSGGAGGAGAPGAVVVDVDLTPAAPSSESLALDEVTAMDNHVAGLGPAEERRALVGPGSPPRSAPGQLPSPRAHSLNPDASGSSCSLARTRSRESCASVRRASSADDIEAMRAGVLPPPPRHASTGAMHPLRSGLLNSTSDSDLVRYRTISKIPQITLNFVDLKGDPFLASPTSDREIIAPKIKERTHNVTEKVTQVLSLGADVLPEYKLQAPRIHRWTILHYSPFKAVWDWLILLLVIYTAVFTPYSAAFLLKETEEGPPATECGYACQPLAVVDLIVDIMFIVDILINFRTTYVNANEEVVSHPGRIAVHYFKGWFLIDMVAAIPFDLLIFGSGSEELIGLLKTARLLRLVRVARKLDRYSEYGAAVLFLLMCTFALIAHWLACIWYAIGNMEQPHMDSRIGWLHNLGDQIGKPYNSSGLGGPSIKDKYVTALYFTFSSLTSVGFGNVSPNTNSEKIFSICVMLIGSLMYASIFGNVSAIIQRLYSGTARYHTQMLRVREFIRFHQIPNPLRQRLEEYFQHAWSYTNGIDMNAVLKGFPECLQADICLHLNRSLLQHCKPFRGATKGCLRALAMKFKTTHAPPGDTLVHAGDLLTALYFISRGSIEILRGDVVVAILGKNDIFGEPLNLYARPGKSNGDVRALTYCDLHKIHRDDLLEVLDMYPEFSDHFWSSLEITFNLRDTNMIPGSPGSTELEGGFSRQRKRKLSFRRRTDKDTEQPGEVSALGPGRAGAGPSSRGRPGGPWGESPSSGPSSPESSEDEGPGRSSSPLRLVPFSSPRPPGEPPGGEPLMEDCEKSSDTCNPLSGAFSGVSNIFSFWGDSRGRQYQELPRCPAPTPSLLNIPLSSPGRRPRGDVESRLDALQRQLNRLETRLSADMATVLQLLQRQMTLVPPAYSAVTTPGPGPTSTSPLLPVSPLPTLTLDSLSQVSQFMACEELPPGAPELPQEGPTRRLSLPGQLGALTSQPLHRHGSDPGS
T11 sequence (P08909 33-460): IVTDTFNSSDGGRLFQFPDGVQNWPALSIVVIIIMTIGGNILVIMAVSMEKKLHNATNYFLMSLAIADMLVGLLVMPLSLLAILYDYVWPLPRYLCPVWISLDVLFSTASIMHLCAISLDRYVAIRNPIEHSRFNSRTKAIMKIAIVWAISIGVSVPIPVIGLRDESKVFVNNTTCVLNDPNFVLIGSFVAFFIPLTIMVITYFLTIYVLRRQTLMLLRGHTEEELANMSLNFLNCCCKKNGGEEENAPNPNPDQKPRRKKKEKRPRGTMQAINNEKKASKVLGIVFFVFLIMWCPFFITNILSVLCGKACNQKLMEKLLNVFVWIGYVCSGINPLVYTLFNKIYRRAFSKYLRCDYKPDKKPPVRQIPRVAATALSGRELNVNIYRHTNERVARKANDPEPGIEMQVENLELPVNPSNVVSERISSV
T5 sequence (P19020 whole entry): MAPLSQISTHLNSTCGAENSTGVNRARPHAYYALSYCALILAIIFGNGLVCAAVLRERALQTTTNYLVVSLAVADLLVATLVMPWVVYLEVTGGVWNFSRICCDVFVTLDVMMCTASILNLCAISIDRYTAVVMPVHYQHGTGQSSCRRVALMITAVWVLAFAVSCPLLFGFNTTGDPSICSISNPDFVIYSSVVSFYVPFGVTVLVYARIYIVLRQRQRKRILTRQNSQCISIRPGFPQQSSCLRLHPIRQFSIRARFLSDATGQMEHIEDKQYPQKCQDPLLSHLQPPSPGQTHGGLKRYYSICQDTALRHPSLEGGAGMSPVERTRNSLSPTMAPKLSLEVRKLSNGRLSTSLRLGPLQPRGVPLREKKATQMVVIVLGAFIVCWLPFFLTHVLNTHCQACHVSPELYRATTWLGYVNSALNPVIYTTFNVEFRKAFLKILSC
Sequence of NET (Q63380 1-617): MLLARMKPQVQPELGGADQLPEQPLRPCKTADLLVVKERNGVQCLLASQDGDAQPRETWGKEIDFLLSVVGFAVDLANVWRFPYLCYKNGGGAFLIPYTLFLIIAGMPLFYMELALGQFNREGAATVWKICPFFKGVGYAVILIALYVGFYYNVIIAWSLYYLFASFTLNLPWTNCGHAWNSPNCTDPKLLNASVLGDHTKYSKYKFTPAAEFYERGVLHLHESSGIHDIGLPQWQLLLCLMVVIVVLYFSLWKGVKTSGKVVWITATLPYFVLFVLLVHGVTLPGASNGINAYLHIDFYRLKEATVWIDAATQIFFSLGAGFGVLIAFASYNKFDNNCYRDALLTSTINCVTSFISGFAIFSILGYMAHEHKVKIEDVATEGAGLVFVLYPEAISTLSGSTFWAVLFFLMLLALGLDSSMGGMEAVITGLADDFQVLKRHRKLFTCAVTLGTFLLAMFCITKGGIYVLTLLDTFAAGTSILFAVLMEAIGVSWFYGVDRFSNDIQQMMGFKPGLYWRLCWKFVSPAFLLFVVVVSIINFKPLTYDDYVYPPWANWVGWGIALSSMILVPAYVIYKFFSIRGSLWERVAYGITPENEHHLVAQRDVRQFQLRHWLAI
T8 sequence (P11229 whole entry): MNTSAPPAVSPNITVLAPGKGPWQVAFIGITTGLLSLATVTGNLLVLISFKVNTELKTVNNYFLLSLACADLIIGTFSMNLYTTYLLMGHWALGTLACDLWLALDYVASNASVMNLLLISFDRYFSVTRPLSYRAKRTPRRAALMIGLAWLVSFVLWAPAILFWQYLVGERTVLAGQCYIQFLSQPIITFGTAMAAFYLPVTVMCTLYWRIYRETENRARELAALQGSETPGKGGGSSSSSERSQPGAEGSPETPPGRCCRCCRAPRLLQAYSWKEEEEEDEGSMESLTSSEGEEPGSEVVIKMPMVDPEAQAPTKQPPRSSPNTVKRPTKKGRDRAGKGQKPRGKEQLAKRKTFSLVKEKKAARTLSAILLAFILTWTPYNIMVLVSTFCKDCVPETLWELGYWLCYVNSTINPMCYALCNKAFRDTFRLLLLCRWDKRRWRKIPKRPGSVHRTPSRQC
Sequence of Histamine H2 receptor (P25021 whole entry): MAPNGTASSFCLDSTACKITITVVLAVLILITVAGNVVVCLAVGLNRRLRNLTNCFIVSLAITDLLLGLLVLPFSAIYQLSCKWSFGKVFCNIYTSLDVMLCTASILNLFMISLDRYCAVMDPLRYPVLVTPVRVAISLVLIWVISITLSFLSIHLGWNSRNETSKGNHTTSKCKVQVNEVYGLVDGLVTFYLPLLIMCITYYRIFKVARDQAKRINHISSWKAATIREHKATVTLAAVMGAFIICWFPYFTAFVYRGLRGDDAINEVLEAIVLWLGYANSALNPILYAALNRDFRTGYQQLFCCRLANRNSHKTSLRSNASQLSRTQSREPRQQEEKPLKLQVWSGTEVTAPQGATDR

**Q.** Which results are given for CN(C)CCC(Oc1cccc2c1OCO2)c1ccc(OCCCN2CCCCC2)cc1.O=C(O)C(=O)O (stereo not shown) [Compound 11b, 3-(benzo[d][1,3]dioxol-4-yloxy)-N,N-dimethyl-3-(4-(3-(piperidin-1-yl)propoxy)phenyl)propan-1-amine oxalate]?
**A.** Ki (NET): 10.5 ± 1.2 nM; Ki [1]: 320 nM; Ki (σ2 receptor): > 1000 nM; IC50 (hERG potassium channel): 1000 ± 112 nM; Ki [2]: > 1000 nM; total travel distance (locomotor activity) (mice [3]): did not significantly alter the total travel distance; Ki (Dopamine D3 receptor): > 1000 nM; Ki (adrenergic α1 receptor): 1170 ± 126 nM; minimal effective dose (MED) in FST (mice [4]): 6 mg/kg; Ki (M2 muscarinic receptor): > 1000 nM; Ki [5]: > 1000 nM; Ki (muscarinic M1 receptor): > 1000 nM; Ki (Dopamine transporter): > 1000 nM; Ki (Histamine H2 receptor): > 1000 nM; Ki (SERT [6]; rat cerebral cortex, [3H]-paroxetine, means ± SEM of three experiments, read-out: Receptor Affinity Ki ± SEM SERT): 7.8 ± 0.9 nM; potency ratio among SERT, NET, and H3 (SERT [6]; ratio of binding Ki values for SERT, NET, H3): < 10 fold; Ki (σ1 receptor): > 1000 nM; Ki (Dopamine D1 receptor): > 1000 nM; inhibition at 10 µM (recombinant hH3R; 10 μM, n = 3): > 90%; IC50 (recombinant hH3R; antagonist assay, RAMH-induced [35S]GTPγS binding): 0.72 nM; Ki (Adrenergic α2 receptor): > 1000 nM; Ki [7]: > 1000 nM; Activation (10 μM, %) SERT (SERT [8]; 10 μM, n = 3): 4.4 ± 0.3%; inhibition at 10 µM (SERT [8]; 10 μM, n = 3): > 90%; IC50 (SERT [8]; [3H]5-HT uptake, antagonist assay): 20.1 nM
